In patent publication US8314144B2, “Compounds having antitumor activity” (Defiante Farmaceutica, S.A., priority 2004, dated 2012):
Like-named read-outs stand apart in the source and are kept apart here.

Columns and labels:
normal PBMCs = assay: Viability test with lymphocytes (PBMCs) taken from healthy individuals; format: cell-based; conditions: 72 hours
Procedure: In addition, in order to exclude the induction of toxicity in normal PBMCs by the test molecule, viability tests were also carried out with lymphocytes taken from healthy individuals and contacted with the test compound.

[1] = test system: human hepatocarcinoma cells (HepG2); assay: Cell mortality of HepG2 cells by propidium iodide flow cytofluorimetry; format: cell-based; conditions: for mortality at 5 µM / mortality at 20 µM: Homo sapiens
Procedure: (§1) The cells were seeded in 60 mm-diameter Petri dishes. After plating the cells were grown for 24 hours prior to their treatment.
(§2) In this experiment, increasing amounts of the test molecule were added to hemiconfluent HepG2 cells (Kogure et al., Cancer Chemother. Pharmacol., 2003; DOI. 10.1007/s); the antiproliferative and proapoptotic effects were determined at different times from cell seeding.
(§3) The experimental design in some cases provided for the addition of the test compound once the cell culture had been prepared, in other cases the cultures were exposed to the compound every 24 hours after suitably removing the conditioned medium and washing the cells with new (complete) medium. The cells were counted in a Bürker chamber after suitable dilution with a vital dye to visualize the living cells. In particular, the trypan blue exclusion method was used for cell count at 0, 24 and 48 hour treatment. At least 10 cell counts were performed for each experiment and each treatment was carried out in quadruple.
(§4) A further analysis involved cytofluorimetry utilizing propidium iodide as a marker for […] cells. The test compound was assayed vs. the CTP inhibitor etomoxir to verify whether the tumoricidal effect could be attributed to CPT-1 inhibition or involved novel mechanisms.
In addition, assays on cell viability were carried out using flow cytofluorimetry techniques.
In further experiments the test molecule was added every 24 hours, as above described, after suitably removing the surnatants and washing the cultures with complete medium. […] In the control, the surnatant was eliminated and complete medium alone was added to the cultures.

[2] = Plasma concentration after intraperitoneal administration (preliminary studies); format: in vivo, rat; conditions: 5 hr after intraperitoneal administration
Procedure: (§5) The experimental protocol provided that 7 days after ascites induction 15 animals (treated group) received 2 ml of a buffered saline containing ST (25 mg/Kg i.p.), whereas other 15 animals (control group) received the buffered saline alone. The same treatment was conducted at alternate days for one week up to a total of 4 treatments for each animal. The dosage was selected on the basis of preliminary studies in which a 6.1 μM plasma concentration of ST was achieved 5 hr after intraperitoneal administration. The animals were subsequently kept under observation for 3 weeks (follow-up), examining the ascites effusion, the presence of subcutaneous neoplastic mass in the inoculum site, and the mortality.

[3] = test system: AH-130 Yoshida ascites hepatoma; assay: In vivo antineoplastic activity in rats bearing Yoshida tumor; set-up: species or system rat; conditions: 25 mg/Kg i.p., alternate days, 4 treatments, 15 animals
Procedure: Male Wistar rats (Morini s.r.l.) of 190-200 g weight were maintained at 22±2° C., with a light/dark cycle of 12 hours, and were given free access to water and food (standard diet). Some rats were intraperitoneally inoculated with 10×10^7 cells from AH-130 Yoshida ascites hepatoma (Llovera et al., Int. J. Cancer 61:138-41 (1995); kind gift from Prof. J M Argilès). 5-7 days after the inoculum, the rats developed an ascites that could be detected by macroscopic analysis of the abdomen.
as §5

[4] = test system: human hepatocarcinoma cells (HepG2); assay: HepG2 cell count (trypan blue exclusion), antiproliferative and tumoricidal effect; format: cell-based; conditions: for number of viable cells versus control cultures (FIGURE): HepG2, less than 10 μM, after 24 hours; for antiproliferative and tumoricidal activity in vitro: tumor cell lines, same experimental conditions for etomoxir and compounds (I)
Procedure: as §1, §2, §3, §4
The data relating to cell viability are expressed as percentage on the number of viable cells from control cultures (=100%). (E=etomoxir; ST1326=tested compound). […] At the same concentrations etomoxir was ineffective.

[5] = test system: acute leukaemia T cells (Jurkat); assay: Cell mortality of Jurkat cells by propidium iodide flow cytofluorimetry; format: cell-based
Procedure: The cells were seeded in […] flasks. After plating the cells were grown for 24 hours prior to their treatment.
The experiment was carried out by adding increasing amounts of the test molecule to hemiconfluent Jurkat cells; the proapoptotic effect was determined at different times from culture preparation.
The experimental design provided for the addition of the test compound only at the start of cell culturing, and the determination of the effects at the established times. The data on cell mortality were obtained using propidium iodide flow cytofluorimetry techniques only. The fact that those cells live suspended in culture rendered these assays extremely easy to perform.
For this reason the cell mortality was determined just after 2 hour treatment and at 24, 48 and 72 hrs.
The mortality was calculated as the percentage over 10.000 acquired standard events. Since the results are almost exactly overlapping, with very low deviation in all the readings for each single experiment, the mean values of 5 cytofluorimetric readings are reported in the following Table without standard deviation.

[6] = test system: human hepatocarcinoma cells (HepG2); assay: cells; conditions: HepG2, read-out: cell mortality
Procedure: The tumor cell line HepG2 was provided by ATCC (American Type Cell Culture—Mannas, Va., No. HB-8065) and subsequently developed in our laboratory. The cells were cultured in complete medium containing MEM added with 10% FCS (bovine fetal serum), 1 mM Na-pyruvate, 2 mM L-glutamine, 0.1 mM non-essential amino acids and antibiotics (penicillin/streptomycin). The medium, culture products and reagents were purchased from Hyclone-Celbio (Milan, Italy). The experimental design provided for the use of ST1326 and of known antineoplastic drugs, such as doxorubicin, against which the HepG2 cells show a high resistance, to determine the agonist action of the compound. […] In this experiment, the following compounds were added to hemiconfluent HepG2 cells in 96 well plates: • 0.25, 0.5, 5.0 μg/mL doxorubicin; • 0.1 μM ST in combination with 0.25 μg/mL doxorubicin.
After 24 hr incubation, the medium containing different concentrations of doxorubicin and the ST/doxorubicin combination was removed and the cells were washed with complete medium. After 3-day treatment, the antineoplastic effect of the test compound was determined in comparison with control cells incubated in complete medium for the same period of time.
The cell mortality was calculated as the percentage (mean±standard deviation) over 10.000 acquired events.

Compound: CCCCCCCCCCCCCCNC(=O)N[C@H](CC(=O)[O-])C[N+](C)(C)C [ST1326, R-4-trimethylammonium-3-(tetradecylcarbamoyl)-Aminobutyrate]
- viability test (cell mortality) in PBMCs (normal PBMCs; 1.0 μM): 9%
- viability test (cell mortality) in PBMCs (normal PBMCs; 5.0 μM): 10%
- viability test (cell mortality) in PBMCs (normal PBMCs; 10 μM): 10%
- viability test (cell mortality) in PBMCs (normal PBMCs; 20 μM): 12%
- cell mortality ([1]; HepG2, 0.1 μM added every 24 hours, 48 hours (second addition)): 45 ± 2.0%
- cell mortality ([1]; HepG2, 0.1 μM added every 24 hours, 72 hours (third addition)): 56.5 ± 1.2%
- cell mortality ([1]; HepG2, 0.1 μM, prior experiments, partial tumoricidal effect): ~50%
- cell mortality ([1]; HepG2, 0.1 μM, treated only once (time 0), 24 hours): 15.3 ± 2.1%
- cell mortality ([1]; HepG2, 0.1 μM, treated only once (time 0), 48 hours): 27.3 ± 2.2%
- cell mortality ([1]; HepG2, 0.1 μM, treated only once (time 0), 72 hours): 49.9 ± 1.2%
- cell mortality ([1]; HepG2, 5 μM added every 24 hours, 48 hours (second addition)): 64.7 ± 1.7%
- cell mortality ([1]; HepG2, 5 μM added every 24 hours, 72 hours (third addition)): 89.7 ± 1.4%
- cell mortality ([1]; HepG2, 5 μM, treated only once (time 0), 24 hours): 25.78 ± 1.70%
- cell mortality ([1]; HepG2, 5 μM, treated only once (time 0), 48 hours): 56.29 ± 1.51%
- cell mortality ([1]; HepG2, 5 μM, treated only once (time 0), 72 hours): 93.48 ± 1.5%
- cell mortality ([1]; HepG2, 10 μM added every 24 hours, 48 hours (second addition)): 87.5 ± 2.03%
- cell mortality ([1]; HepG2, 10 μM added every 24 hours, 72 hours (third addition)): 91.3 ± 1.9%
- cell mortality ([1]; HepG2, 10 μM, treated only once (time 0), 24 hours): 53.21 ± 1.5%
- cell mortality ([1]; HepG2, 10 μM, treated only once (time 0), 48 hours): 85.10 ± 0.9%
- cell mortality ([1]; HepG2, 10 μM, treated only once (time 0), 72 hours): 96.3 ± 1.1%
- cell mortality ([1]; HepG2, 20 μM added every 24 hours, 48 hours (second addition)): 93.9 ± 1.03%
- cell mortality ([1]; HepG2, 20 μM added every 24 hours, 72 hours (third addition)): 98.1 ± 0.9%
- cell mortality ([1]; HepG2, 20 μM, treated only once (time 0), 24 hours): 88.22 ± 1.9%
- cell mortality ([1]; HepG2, 20 μM, treated only once (time 0), 48 hours): 89.10 ± 0.17%
- cell mortality ([1]; HepG2, 20 μM, treated only once (time 0), 72 hours): 98.51 ± 1.3%
- plasma concentration [2]: 6.1 µM
- Presence of cachexy (No. of animals) [3]: 1
- Presence of tumor cells in the abdominal cavity (post-mortem examination) (No. of animals) [3]: 0
- Presence of tumor mass in the inoculum site (No. of animals) [3]: 0
- Survival at 1 week follow-up (No. of survived animals) [3]: 15
- Survival at 2 week follow-up (No. of survived animals) [3]: 15
- Survival at 3 week follow-up (No. of survived animals) [3]: 15
- number of viable cells versus control cultures (FIGURE) [4]: remarkable reduction in the number of cells
- antiproliferative and tumoricidal activity in vitro [4]: in vitro antiproliferative effect associated with a significant tumoricidal activity
- cell mortality ([5]; 0.1 μM, 2 hours): 3%
- cell mortality ([5]; 0.1 μM, 24 hours): 4%
- cell mortality ([5]; 0.1 μM, 48 hours): 5%
- cell mortality ([5]; 0.1 μM, 72 hours): 13%
- cell mortality ([5]; 0.25 μM, 2 hours): 3%
- cell mortality ([5]; 0.25 μM, 24 hours): 5%
- cell mortality ([5]; 0.25 μM, 48 hours): 8%
- cell mortality ([5]; 0.25 μM, 72 hours): 14%
- cell mortality ([5]; 0.50 μM, 2 hours): 7%
- cell mortality ([5]; 0.50 μM, 24 hours): 15%
- cell mortality ([5]; 0.50 μM, 48 hours): 35%
- cell mortality ([5]; 0.50 μM, 72 hours): 56%
- cell mortality ([5]; 1.0 μM, 2 hours): 6%
- cell mortality ([5]; 1.0 μM, 24 hours): 79%
- cell mortality ([5]; 1.0 μM, 48 hours): 83%
- cell mortality ([5]; 1.0 μM, 72 hours): 90%
- cell mortality ([5]; 2.5 μM, 2 hours): 6%
- cell mortality ([5]; 2.5 μM, 24 hours): 91%
- cell mortality ([5]; 2.5 μM, 48 hours): 97%
- cell mortality ([5]; 2.5 μM, 72 hours): 99%
- cell mortality ([5]; 5.0 μM, 2 hours): 8%
- cell mortality ([5]; 5.0 μM, 24 hours): 99%
- cell mortality ([5]; 5.0 μM, 48 hours): 99%
- cell mortality ([5]; 5.0 μM, 72 hours): 99%
- cell mortality ([5]; 10 μM, 2 hours): 20%
- cell mortality ([5]; 10 μM, 24 hours): 99%
- cell mortality ([5]; 10 μM, 48 hours): 99%
- cell mortality ([5]; 10 μM, 72 hours): 99%

Compound: COc1cccc2c1C(=O)c1c(O)c3c(c(O)c1C2=O)C[C@@](O)(C(=O)CO)C[C@@H]3O[C@H]1C[C@H](N)[C@H](O)[C@H](C)O1 [Doxorubicina, doxorubicin]
- mortality at 0.25 µg/mL [6]: 11.2 ± 1.5%
- mortality at 0.5 µg/mL [6]: 22.7 ± 3.5%
- mortality at 5 µg/mL [6]: 48.6 ± 4.1%

Compound: CCOC(=O)[C@@]1(CCCCCCOc2ccc(Cl)cc2)CO1 [Etomoxir, etomoxir, reference compound]
- mortality at 5 µM ([1]; HepG2, 24 h, read-out: cell mortality, HepG2, 5 μM, treated only once (time 0), 24 hours): 10.8 ± 1.65%
- mortality at 20 µM ([1]; HepG2, 24 h, read-out: cell mortality, HepG2, 20 μM, treated only once (time 0), 24 hours): 13 ± 1.07%
- mortality at 5 µM ([1]; HepG2, 48 h, read-out: cell mortality, HepG2, 5 μM, treated only once (time 0), 48 hours): 11.8 ± 0.4%
- mortality at 20 µM ([1]; HepG2, 48 h, read-out: cell mortality, HepG2, 20 μM, treated only once (time 0), 48 hours): 11.2 ± 1.3%
- mortality at 5 µM ([1]; HepG2, 72 h, read-out: cell mortality, HepG2, 5 μM, treated only once (time 0), 72 hours): 10.1 ± 2.1%
- mortality at 20 µM ([1]; HepG2, 72 h, read-out: cell mortality, HepG2, 20 μM, treated only once (time 0), 72 hours): 11.7 ± 1.3%
- mortality at 5 µM ([1]; HepG2, read-out: cell mortality, HepG2, 5 μM added every 24 hours, 48 hours (second addition)): 10.2 ± 1.7%
- mortality at 5 µM ([1]; HepG2, read-out: cell mortality, HepG2, 5 μM added every 24 hours, 72 hours (third addition)): 12.6 ± 1.1%
- mortality at 20 µM ([1]; HepG2, read-out: cell mortality, HepG2, 20 μM added every 24 hours, 48 hours (second addition)): 13.9 ± 1.2%
- mortality at 20 µM ([1]; HepG2, read-out: cell mortality, HepG2, 20 μM added every 24 hours, 72 hours (third addition)): 14.1 ± 0.9%
- number of viable cells versus control cultures (FIGURE) [4]: ineffective
- antiproliferative and tumoricidal activity in vitro [4]: did not show any antiproliferative or tumoricidal activity
